The target in one series is T1, HIV-1 RT (Human immunodeficiency virus type 1 group M subtype B, UniProt P03367).
T1 construct: Reverse transcriptase enzyme from the LAV strain of Human Immunodeficiency Virus (HIV-1) (1) was isolated from the bacterial strain JM109; made in house; host or cells: E. coli JM109, clone pBRTprt1+ in vector pIBI21, lac promoter, IPTG induction
Put plainly: Reverse Transcriptase (RT) Assay: inhibition of RNA-dependent DNA polymerase activity. It counts as biochemical. The conditions noted are these: for inhibition at 10 µg/mL: read-out: RT Inhibition % @ 10µg/ml. The text has this: Utilizing the Reverse Transcriptase (RT) Assay descibed below, compounds can be tested for their ability to inhibit the RNA-dependent DNA polymerase activity of HIV-1 RT. Certain specific compounds of formula I described in the Examples which appear below, were so tested. The above-described compounds of formula IA were also so tested.
Among the enzymes for which Human Immunodeficiency Virus (HIV-1) encodes is a reverse transcriptase (1), so-named because it transcribes a DNA copy from an RNA template. This activity can be quantitatively measured in a cell-free enzyme assay which has been previously described (2), and is based upon the observation that reverse transcriptase is able to use a synthetic template [poly r(C) primed with oligo d(G)] to transcribe a radio-labelled, acid-precipitable DNA strand utilizing ^3H-dGTP as a substrate.
Reverse transcriptase enzyme from the LAV strain of Human Immunodeficiency Virus (HIV-1) (1) was isolated from the bacterial strain JM109 (3) expressing the DNA clone pBRTprt1+ (2) which is under the control of the lac promoter in the expression vector pIBI21 (4). An overnight culture grown in 2XYT medium (37°C, 225 rpm) (5) supplemented with 100 µg/ml ampicillin for positive selection is inoculated at a 1:40 dilution into M9 medium supplemented with 10µg/ml thiamine, 0.5% casamino acids, and 50 µg/ml ampicillin (5). The culture is incubated (37°C, 225 rpm) until it reaches an OD540 of 0.3-0.4. At that time the repressor inhibitor IPTG (isopropyl b-D-thiogalactopyranoside) is added to 0.5mM and the mixture is incubated for 2 additional hours. Bacteria are pelleted, resuspended in a 50mM Tris, 0.6mM EDTA, 0.375M NaCl buffer and digested by the addition of lysozyme (1mg/ml) for 30 minutes on ice. The cells are lysed by the addition of 0.2% NP-40 and brought to 1M NaCl.
After removal of the insoluble debris by centrifugation, the protein is precipitated by the addition of 3 volumes of water-saturated ammonium sulfate. The enzyme is pelleted, resuspended in RT buffer (50mM Tris pH 7.5. 1mM EDTA, 5mM DTT, 0.1% NP-40, 0.1M NaCl, and 50% glycerol), and stored at -70°C for further use.
The 2X concentrated stock reaction mixture is aliquoted and stored at -20°C. The mixture is stable and thawed for use in each assay. This enzyme assay has been adapted to a 96 well microtiter plate system, and has been previously described (6). Tris buffer (50 mM, pH 7.4), vehicle (solvent diluted to match the compound dilution), or compounds in vehicle are dispensed into 96-well microtiter plates (10µl/well: 3 wells/compound). The HIV-1 RT enzyme is thawed and diluted in 50mM Tris pH 7.4 so that fifteen µl of diluted enzyme contain 0.001 Unit (one unit is that amount of enzyme to transform 1 micromole of substrate per minute at 25°C) and 15µl are dispensed per well. Twenty µl of 0.12 - 0.5M EDTA are added to the first three wells of the microtiter plate. EDTA chelates the Mg^++ present and prevents reverse transcription. This group serves as background polymerization which is subtracted from all other groups. Twenty-five ul of the 2X reaction mixture are added to all wells and the assay is allowed to incubate at room temperature for 60 minutes. The assay is terminated by precipitating the DNA in each well with 50µl of trichloracetic acid (TCA) (10% w/v) in sodium pyrophosphate (1% w/v). The microtiter plate is incubated for 15 minutes at 4°C and the precipitate is fixed onto #30 glass fiber paper (Schleicher & Schuell) using a Skatron semi-automatic harvester. The filters are then washed with additional TCA (5%) containing sodium pyrophosphate (1%), rinsed with aqueous ethanol (70%), dried, and transferred to scintillation vials (6). Each vial receives 2 mls of scintillation cocktail and is counted in a Beckman beta counter. […]

For series [1], the system named is HTLV-IIIB strain of HIV-1. Put plainly: Human T-Cell Culture Assay (syncytia formation in c8166 cells). It counts as cell-based. The conditions noted are these: Human immunodeficiency virus 1, IIIB, 96 h, syncytia four days after virus challenge. The method, then: In order to confirm that compounds which are active in the RT Assay also have the ability to inhibit HIV-1 replication in a living system, several compounds of formula I were also tested in the Human T-Cell Culture Assay described below.
Formation of syncytia is a feature of in vitro cultures of CD4+ T-cells infected with HIV-1. In this assay, T-cells are treated with a putative replication inhibiting compound and then infected with HIV-1. After incubation the culture is checked for the formation of syncytia. The absence or reduction is the number of syncytia is used as a measure of the test compound's ability to inhibit HIV replication.
The target cells, designated c8166, are a subclone of human lymphoma cells of T-cell origin and are established at an initial density of 5x10^4 per 100 ul in RPMI 1640 (+ 10% fetal bovine serum) culture medium in 96 well flat bottom plates. A selected amount of test compound, dissolved in DMSO is included. After 24 hours, 50-100 TCID50's (the dose that results in induced effect in 50% of test cultures) of the HTLV-IIIB strain of HIV-1 (2) are innoculated into each culture. Control cultures receive compound or virus only. Four days after virus challenge, cultures are visually examined for the frequency and distribution of virus-induced giant cell syncytia. The percent inhibition by the test compound is determined by comparison with control values. Confirmation of the presence or absence of virus replication is accomplished by harvesting the cell free culture fluids from all experimental groups to determine the present or absence of infectious progeny through the induction of syncytia formation in secondary human T-cell cultures after 3 days.

A short description of series [2]: MTT Assay for Cellular Cytotoxicity. It counts as cell-based, human. The conditions noted are these: human, H9 cells, five days incubation, read-out: Cytotoxity Assay (EC50). As to the method:
(§1) In order to roughly assess the cytotoxicity of the compounds of formula 1, several such compounds were tested in the MTT Cellular Cytotoxicity Assay described below.
(§2) The MTT [3-(4,5-dimethylthiazol-2yl)-2,5-diphenyl tetrazolium bromide) assay is based on cleavage of tetrazolium bromide by metabolically active cells, resulting in a highly quantitative blue color. This assay has been previously described (1) but has been optimized for the purposes of the testing reported herein.
(§3) Cells (100µl) are plated in microtest plate wells at a concentration of 10^5 cells per ml in the presence of varying concentrations of inhibitor. The cells are incubated at 37°C in a humidified CO2 incubator. […] After 4 hours additional incubation at 37°C, 60µl of Triton-X is added to each well and thoroughly mixed to aid the solubilization of the crystals. Absolute ethanol (5µl) is added to each well and the resulting mixture is incubated for 30 minutes at 60°C and immediately read on a plate reader (Dynatech) at a wavelength of 570nm.
(§4) Data from this assay are used to generate a nonlinear regression analysis, which yields the EC50.

The subject of another series is H9 cell line. The series can be described thus: MTT Assay for Cellular Cytotoxicity. It counts as cell-based, human. The conditions noted are these: H9 cells, five days incubation, unit inferred, 7200 min, read-out: Cytotoxity Assay (EC50). As to the method:
as §1, §2, §3, §4

[3] abbreviates: 10µg/ml, Table I, compounds of formula I.

Where two headings read alike, the source gives them in different places.

`CCN1c2ccccc2N(C)C(=O)c2cccnc21` [Example 2, 6,11-Dihydro-11-ethyl-6-methyl-5H-pyrido[2,3-b][1,5]benzodiazepin-5-one]: at HIV-1 RT (setting [3]), the inhibition at 10 µg/mL amounted to 97%. In addition, the inhibition at 4 µM in series [1] (@ 4µM) stood at 100%. Also, the CC50 at 120 h in series [2] is 80 µM.
In the case of `CN1C(=O)c2cccnc2N(C)c2cc(C(F)(F)F)ccc21` [Example 4, 6,11-Dihydro-6,11-dimethyl-9-(trifluoromethyl)-5H-pyrido[2,3-b][1,5]benzodiazepin-5-one], the inhibition at 10 µg/mL on HIV-1 RT (setting [3]) was 79%. In series [2], the CC50 at 120 h was 49 µM.
For the molecule `CC(C)N1c2ccccc2N(C)C(=O)c2cccnc21` [Example 5, 6,11-Dihydro-6-methyl-11-methylethyl-5H-pyrido[2,3-b][1,5]benzodiazepin-5-one], the inhibition at 10 µg/mL on HIV-1 RT (setting [3]) was determined as 94%. The inhibition at 19 µM in series [1] (@19µM) amounted to 100%. In addition, the CC50 at 120 h in series [2] was 50 µM.
For `CN1C(=O)c2cccnc2N(C)c2ccc(Cl)cc21` [Example 8, 8-Chloro-6,11-dihydro-6,11-dimethyl-5H-pyrido[2,3-b][1,5]benzodiazepin-5-one], the inhibition at 10 µg/mL at HIV-1 RT (setting [3]) amounted to 55%. In series [2], the CC50 at 120 h came to 37 µM.
In the case of `Cc1cc2c(cc1C)N(C)c1ncccc1C(=O)N2C` [Example 9, 6,11-Dihydro-6,8,9,11-tetramethyl-5H-pyrido[2,3-b][1,5]-benzodiazepin-5-one], the inhibition at 10 µg/mL on HIV-1 RT (setting [3]) came to 92%. The CC50 at 120 h in series [2] came out at 4 µM.
In the case of `Cc1ccc2c(n1)N(C)c1cc(C)c(C)cc1N(C)C2=O` [Example 15, 6,11-Dihydro-2,6,8,9,11-pentamethyl-5H-pyrido[2,3-b][1,5]benzodiazepin-5-one], at HIV-1 RT (setting [3]), the inhibition at 10 µg/mL was found to be 39%. The CC50 at 120 h in series [2] (unit inferred) came out at 18 µM.
Consider `CC(=O)N1c2cc(C)c(C)cc2N(C)C(=O)c2cccnc21` [Example 19, 11-Acetyl-6,11-dihydro-6,8,9-trimethyl-5H-pyrido[2,3-b][1,5]benzodiazepin-5-one], for which, on HIV-1 RT (setting [3]), the inhibition at 10 µg/mL stood at 90%. For the same molecule, the CC50 at 120 h in series [2] (unit inferred) came out at 85 µM.
In the case of `CCN1c2ccccc2N(C)C(=S)c2cccnc21` [Example 22, 6,11-Dihydro-11-ethyl-6-methyl-5H-pyrido[2,3-b][1,5]benzodiazepin-5-thione], at HIV-1 RT, the inhibition at 10 µg/mL is 100%. In series [1] (@3µM), this molecule showed an inhibition at 3 µM of 100%.
`CCN1C(=O)c2cccnc2Nc2cc(C)ccc21` [Formula IA h, 6-ethyl-9-methyl-6,11-dihydro-5H-pyrido[2,3-b][1,5]benzodiazepin-5-one]: the inhibition at 10 µg/mL at HIV-1 RT (10µg/ml, Table II, known compounds of formula IA) was found to be 78%.
As to “Mixture of 6,11-Dihydro-2,4,6,8,11-and 6,11-dihydro-2,4,6,9,11- pentamethyl-5H-pyrido[2,3-b][1,5]benzodiazepin-5-one [Example 17]”, at HIV-1 RT (setting [3]), the “RT Inhibition % @ 10µg/ml” value was determined as 49%. Also, the CC50 with H9 cell line stood at 9 µM.
